Laboratory results from EPA's ToxValDB 9.5 (doi:10.2903/j.efsa.2018.5307).

What was measured:
Typhlodromus pyri = assay: LR50; higher = less toxic; details: acute; mortality
Oryctolagus sp. = details: developmental; development
Cyprinus carpio = details: acute; duration: 96 hours; mortality
Pimephales promelas = details: chronic/long-term; development
Daphnia magna = details: chronic/long-term; duration: 23 days; reproduction
Apis mellifera = details: acute, mortality
Tagia sp. = details: chronic/long-term; reproduction

Structure (SMILES): CCOP(=O)=O.CCOP(=O)=O.CCOP(=O)=O.[Al+3] [Fosetyl aluminum]
- LR50 (Typhlodromus pyri): > 8400 g/ha
- NOAEL (Oryctolagus sp.): 100 mg/kg-day
- LC50 (Cyprinus carpio): > 100 µg/mL
- NOEC (Pimephales promelas): 0.213 mg/L
- NOEC (Daphnia magna): 10.1 mg/L
- LD50 (Apis mellifera; dermal): > 100 µg/piece
- LD50 (Apis mellifera; oral, unspecified): > 140 µg/piece
- NOEC (Tagia sp.): 164 mg/kg
- LD50 (Rattus norvegicus; acute, oral, mortality): > 7080 mg/kg-day
- NOAEL (Rattus norvegicus; reproduction developmental, body weight): 482 mg/kg-day
- LD50 (Colinus virginianus; acute, oral, mortality): > 2000 mg/kg-day
- NOEL (Colinus virginianus; reproduction developmental): 216 mg/kg-day
